According to patent publication US6653280B2, “Antifungal polypeptide AlyAFP from Alyssum and methods for controlling plant pathogenic fungi” (Monsanto Technology LLC, priority 1996, dated 2003):
Where two headings read alike, the source gives them in different places.

How the values were obtained:
[1] = system: Verticillium dahliae; assay: Verticillium wilt disease test on transgenic potato plants expressing the polypeptide; format: in vivo, potato (Solanum tuberosum var. Russet Burbank); conditions: for Verticillium wilt resistance conferred to potato plants: expression levels as high as 25 μg/g fresh leaf tissue; for Disease Severity (%) (58 Days Post Inoc.): average of three replicates; for difference in disease progress between expressing lines and control lines: rated at 49, 58, and 64 days post inoculation; for Disease Severity (%) (44 Days Post Inoc.): average of 3 replicates
Method: Conidia and mycelia of a 2-3 week old culture of virulent Verticillium dahliae were used to inoculate a PDA (potatoes, 200 g/l; Bacto dextrose, 20 g/l; and Bacto agar, 15 g/l ) Petri plate. This culture was allowed to grow at 22° C. for 4-5 days. Conidia were then harvested by washing the culture plate with sterile distilled water and filtering the liquid through two layers of cheesecloth. The conidial spore concentration was determined using a hemacytometer, and adjusted to 1×10^6 conidia/ml with sterile distilled water.
Transgenic and non-transgenic potato plants were grown from stem cuttings under sterile conditions as described above in plastic cups containing 50 mls of PM-agar medium. When plants were about 1-2 inches tall, they were removed from the medium and their roots were dipped in the spore suspension (Joaquim et al. (1991) Phytopathology 81:552-558). The inoculated plants were then transplanted into 6-inch pots containing Metro-Mix 350. After transplanting, each plant received an additional 5mls of the spore suspension on the soil surface around the base of the stem. The pots were placed in a growth chamber under the following conditions: temperature at 20° C., light intensity at 320 μEinstein/sec/cm^2, 12 hr day/12 hr night light cycle, subirrigation with water 2 times/day, 20 minutes soaking each time. Four weeks after inoculation, the plants were scored for disease severity on a scale of 0-100% (Horsfall et al. (1945) Phytopathology 35:655). To develop a disease progress curve over time, plants were rated once a week for at least 8 weeks.
Table 3 summarizes the protein expression level in each of the lines, and the disease severity rating of each individual line in the test determined at 44 days post inoculation. The disease severity rating was the average of 3 replicates. For convenience, the same disease data are also presented as a bar graph in FIG. 11. The order of appearance of each potato line in Table 3 (from top to bottom) and in FIG. 11 (from left to right) is the same.
In this test, disease symptoms appeared in the experimental and control plants at approximately 49 days post inoculation. Disease progress was rated at 49, 58, and 64 days post inoculation. […] The disease severity rating was the average of three replicates. Table 4 summarizes the protein expression level in each of the lines, and the disease severity rating of each individual line determined at 58 days post inoculation. For convenience, the same disease data are also presented as a bar graph in FIG. 12. The order of appearance of each potato line in Table 4 (from top to bottom) and in FIG. 12 (from left to right) is the same.

[2] = system: Fusarium culmorum; conditions: F. culmorum, comparison peptides disclosed in WO 93/05153, cited from earlier work
[3] = system: Verticillium dahliae; conditions: V. dahliae, comparison peptides disclosed in WO 93/05153, cited from earlier work
[4] = system: Verticillium dahliae; assay: Antifungal activity: inhibition of fungal hyphal growth (microscopy); format: cell-based; conditions: V. dahliae
Method: (§1) The antifungal activity of AlyAFP can be expressed as the concentration thereof in μg/ml required to cause 50% inhibition of fungal hyphal growth (IC50). Percent fungal hyphal growth inhibition is defined as 100×the ratio of the average hyphae length in the test sample culture divided by the average hyphae length in the control culture in which buffer is added in place of the polypeptide sample.
(§2) The antifungal activity of AlyAFP was determined by measuring the inhibition of fungal hyphal length of a number of different fungi in the presence of this polypeptide under an inverted microscope. Fungal spores (2×10^4 spores/ml) were allowed to germinate for 5 to 15 hours, depending on the fungus used in the test, in 50 μl of double strength testing medium. […] For experiments on the antagonistic effect of cations, CaCl2 and KCl were added to final concentrations of 1 mM and 50 mM, respectively. This salt-supplemented medium is refered to as “high salt medium,” and the original medium is refered to as “low salt medium.” After spore germination, 50 μl of a filter-sterilized solution of polypeptide in distilled water were added to the testing well containing the germinated spores, and the mixture was incubated for 15 to 24 hours at 24° C. […] Polypeptide concentrations were determined using the BCA protein assay kit obtained from Pierce (Rockford, Ill.).

[5] = ELISA of antifungal polypeptide expression in leaves of transgenic potato plants; set-up: species or system potato (Solanum tuberosum var. Russet Burbank); conditions: 3 transgenic potato lines
Method: Leaf samples (20 to 100 mg) were taken from transgenic plants grown to 1 to 2 inches in height. The leaf samples were ground in PBST buffer (15 μl/mg tissue) containing 1 mM KH2PO4, 10 mM Na2HPO4, 137 mM NaCl, 2.7 mM KCl, pH 7.4, and 0.05% Tween-20, and allowed to sit at 4° C. overnight. After centrifugation, 100 μl of the supernatant were used in an ELISA assay. Polyclonal antibodies against Rs-AFP1 polypeptide (SEQ ID NO:18) were prepared by Pocono Rabbit Farm (Pocono, Pa.). Wells of a Nunc Maxi-sorp 96 well plate (Nunc #4-39454) were coated with antibodies against Rs-AFP1 polypeptide by adding 100 μl of antibodies (1 mg IgG/ml) diluted 1:200 in coating buffer containing 1.59 g Na2CO3 and 2.93 g NaHCO3 per liter distilled water, pH 9.6, and incubating at 4° C. overnight. The coating solution was then removed from the wells, which were then washed three times with PBST. One hundred μl of leaf supernatant or appropriately diluted polypeptide standards in PBST supplemented with 0.2% (w/v) BSA, fraction V (Sigma, St. Louis) were added to the wells. The concentration of each polypeptide in extracts from transgenic plants was determined from standard curves constructed using varying amounts of the respective purified polypeptide. […] The optical density at 405 nm was determined using a Thermo-max microplate reader (Molecular Devices, Menlo Park, Calif.). […]

[6] = system: Fusarium culmorum; conditions: F. culmorum
Method: as §1, §2

[7] = 58 days post inoc., average of the 5 expressing lines marked +, vector control 60.0
[8] = high salt medium (1 mM CaCl2, 50 mM KCl)

Rs-AFP2: small cysteine-rich antifungal protein isolated from radish seed (WO 93/05153), SEQ ID NO:19 (QKLCQRPSGTWSGVCGNNNACKNQCIRLEKARHGSCNYVFPAHKCICYFPC)
Average Dis. Sev. [1, 7]: 64.0%
Verticillium wilt resistance conferred to potato plants [1]: did not provide any significant level of Verticillium wilt resistance
Disease Severity (%) (58 Days Post Inoc.) ([1]; potato line 13500, 10.8 μg AFP/g tissue): 82.5%
Disease Severity (%) (58 Days Post Inoc.) ([1]; potato line 13501, 25.2 μg AFP/g tissue): 76.3%
Disease Severity (%) (58 Days Post Inoc.) ([1]; potato line 13503, 25.1 μg AFP/g tissue): 53.8%
Disease Severity (%) (58 Days Post Inoc.) ([1]; potato line 13531, 16.2 μg AFP/g tissue): 72.5%
Disease Severity (%) (58 Days Post Inoc.) ([1]; potato line 13532, 17.5 μg AFP/g tissue): 35.0%
difference in disease progress between expressing lines and control lines [1]: No differences
IC50 ([2]; high salt): 5 µg/mL
IC50 ([2]; low salt): 2 µg/mL
IC50 ([3]; high salt): 50 µg/mL
IC50 ([3]; low salt): 1.5 µg/mL

AlyAFP: antifungal polypeptide of 50 amino acids obtainable from flowers of Alyssum, SEQ ID NO:2 (RLCERPSGTWSGVCGNNNACRNQCRNLERAEHGSCNYVFPAHKCICYFPC)
IC50 [4, 8]: <5 µg/mL
IC50 ([4]; low salt medium): <1 µg/mL
Average Dis. Sev. ([1]; 44 days post inoc., average of the 8 high and medium expressing lines marked +, vector control 39.2): 14.9%
disease severity less than that of the vector control ([1]; average of 8 high and medium expressing lines vs average of 3 vector control lines, 44 days): 62%
disease severity less than that of the vector control ([1]; best high expressing lines #17575 and #17587, 44 days): 82%
disease resistance as compared to the vector controls ([1]; low expressing lines (0.9 to 1.1 μg/g fresh leaf tissue)): did not exhibit any significant level of disease resistance
Disease Severity (%) (44 Days Post Inoc.) ([1]; potato line 17575, 14.9 μg AFP/g tissue): 7.5%
Disease Severity (%) (44 Days Post Inoc.) ([1]; potato line 17578, 12.7 μg AFP/g tissue): 15%
Disease Severity (%) (44 Days Post Inoc.) ([1]; potato line 17580, 0.9 μg AFP/g tissue): 33.3%
Disease Severity (%) (44 Days Post Inoc.) ([1]; potato line 17581, 9.2 μg AFP/g tissue): 24.3%
Disease Severity (%) (44 Days Post Inoc.) ([1]; potato line 17587, 9.6 μg AFP/g tissue): 6.3%
Disease Severity (%) (44 Days Post Inoc.) ([1]; potato line 17589, 1.1 μg AFP/g tissue): 43.8%
Disease Severity (%) (44 Days Post Inoc.) ([1]; potato line 17592, 2.6 μg AFP/g tissue): 11.8%
Disease Severity (%) (44 Days Post Inoc.) ([1]; potato line 17593, 2.6 μg AFP/g tissue): 17.3%
Disease Severity (%) (44 Days Post Inoc.) ([1]; potato line 17595, 5.2 μg AFP/g tissue): 21%
Disease Severity (%) (44 Days Post Inoc.) ([1]; potato line 17618, 2.6 μg AFP/g tissue): 16.3%
expression level at which potato plants exhibit resistance to Verticillium wilt ([1]; transgenic potato plants): ≥ 2.6 μg/g fresh leaf tissue
expression level, medium expressers [5]: 2.6 μg AlyAFP/g fresh leaf tissue
IC50 [6, 8]: <10 µg/mL
IC50 ([6]; low salt medium): <2 µg/mL

Rs-AFP1: small cysteine-rich antifungal protein isolated from radish seed (WO 93/05153), SEQ ID NO:18 (QKLCERPSGTWSGVCGNNNACKNQCINLEKARHGSCNYVFPAHKCICYFPC)
Average Dis. Sev. [1, 7]: 59.8%
Verticillium wilt resistance conferred to potato plants [1]: did not provide any significant level of Verticillium wilt resistance
Disease Severity (%) (58 Days Post Inoc.) ([1]; potato line 15117, 9.7 μg AFP/g tissue): 47.5%
Disease Severity (%) (58 Days Post Inoc.) ([1]; potato line 15120, 8.0 μg AFP/g tissue): 50.0%
Disease Severity (%) (58 Days Post Inoc.) ([1]; potato line 15124, 26 μg AFP/g tissue): 56.3%
Disease Severity (%) (58 Days Post Inoc.) ([1]; potato line 15143, 18.3 μg AFP/g tissue): 78.8%
Disease Severity (%) (58 Days Post Inoc.) ([1]; potato line 15154, 5.2 μg AFP/g tissue): 66.3%
difference in disease progress between expressing lines and control lines [1]: No differences
IC50 ([2]; high salt): 70 µg/mL
IC50 ([2]; low salt): 5 µg/mL
IC50 ([3]; high salt): >100 µg/mL
IC50 ([3]; low salt): 5 µg/mL
